Laboratory results reported in publication PMC11768667 (2025).

Experiments:
[1] = tested on: FKB-2 (DNA, aptamer) CGAGCATAGGCAGAACTTACCACGAGGACGGGTCAGTGCGTTAGGTGCCCACAGTCGTAAGAGCGAGTCATTC; experiment: gel elution assay; conditions: 20 mM NaCl, 0.5 mM MgCl2; for binding: 10 mM Tris-HCl pH 7.4, displacement from cDNA-bio
[2] = tested on: FKB-1 (DNA, aptamer) CGAGCATAGGCAGAACTTACCACCAAGTGAGGGTGTACGGTGGCTTACGCTTGGTCGTAAGAGCGAGTCATTC; experiment: gel elution assay; conditions: 20 mM NaCl, 0.5 mM MgCl2; for binding: 10 mM Tris-HCl pH 7.4, displacement from cDNA-bio, tested at 100 µM
[3] = tested on: FKB-S-5'FAM (DNA, aptamer) CTTACCACCAAGTGAGGGTGTACGGTGGCTTACGCTTGGTCGTAAG; experiment: microscale thermophoresis; conditions: 20 mM NaCl, 0.5 mM MgCl2; 10 mM Tris-HCl pH 7.4, 5% DMSO, 0.05% Tween-20
[4] = tested on: FKB-3 (DNA, aptamer) CGAGCATAGGCAGAACTTACCACACAGCGTACCTCGTAGCCATGCGCCGTTGGGTCGTAAGAGCGAGTCATTC; experiment: gel elution assay; conditions: 20 mM NaCl, 0.5 mM MgCl2; for binding: 10 mM Tris-HCl pH 7.4, displacement from cDNA-bio
[5] = tested on: FKB-S (DNA, aptamer) CTTACCACCAAGTGAGGGTGTACGGTGGCTTACGCTTGGTCGTAAG; experiment: AuNP aggregation colorimetric assay; conditions: NaCl (20 µL of 400 mM added after compound), room temperature, indirect readout
[6] = tested on: FKB-1-5'FAM (DNA, aptamer) CGAGCATAGGCAGAACTTACCACCAAGTGAGGGTGTACGGTGGCTTACGCTTGGTCGTAAGAGCGAGTCATTC; experiment: microscale thermophoresis; conditions: 20 mM NaCl, 0.5 mM MgCl2; 10 mM Tris-HCl pH 7.4, 5% DMSO, 0.05% Tween-20
[7] = 10 mM Tris-HCl pH 7.4, room temperature, displaced from cDNA-bio, apparent

COc1cc(O)c(C(=O)/C=C/c2ccc(O)cc2)c(OC)c1
binding [1]: weak | binding [2]: no | binding [3]: weak | binding [4]: weak

COc1cc(O)c(C(=O)/C=C/c2ccccc2)c(OC)c1
KD [1, 7]: 9970 nM | KD [2, 7]: 2870 nM | KD [3]: 280 nM | binding ([5]; FKB 0-5 μM): yes | KD [6]: 1450 nM | KD [4, 7]: 40500 nM

COc1ccc(/C=C/C(=O)c2c(O)cc(OC)cc2OC)cc1
binding [1]: weak | binding [2]: no | binding [3]: weak | binding [4]: weak

O=C(/C=C/c1ccc(O)cc1)c1ccc(O)cc1O
binding [2]: no

O=C1c2cccc(O)c2C(=O)c2c(O)cc(CO)cc21
binding [2]: no

O=c1c(O)c(-c2cc(O)c(O)c(O)c2)oc2cc(O)cc(O)c12
binding [2]: no | binding [5]: no

O=c1c(O)c(-c2ccc(O)c(O)c2)oc2cc(O)cc(O)c12
binding [2]: no | binding [5]: no
